The source made the active and inactive calls. How the calls were made is not given here.

One assay deals with Prostaglandin E2 receptor EP2 subtype (Homo sapiens) (UniProt P43116). Kind of assay: compounds shifting PGE2 potency at EP2 – cell-based, human EP2, PGE2 EC50 shift, dose response (AID 1421). The following applies: EP2-expressing cells, PGE2 EC50 shift by compound.
Sequence of Prostaglandin E2 receptor EP2 subtype (Homo sapiens) (P43116 whole entry, looked up): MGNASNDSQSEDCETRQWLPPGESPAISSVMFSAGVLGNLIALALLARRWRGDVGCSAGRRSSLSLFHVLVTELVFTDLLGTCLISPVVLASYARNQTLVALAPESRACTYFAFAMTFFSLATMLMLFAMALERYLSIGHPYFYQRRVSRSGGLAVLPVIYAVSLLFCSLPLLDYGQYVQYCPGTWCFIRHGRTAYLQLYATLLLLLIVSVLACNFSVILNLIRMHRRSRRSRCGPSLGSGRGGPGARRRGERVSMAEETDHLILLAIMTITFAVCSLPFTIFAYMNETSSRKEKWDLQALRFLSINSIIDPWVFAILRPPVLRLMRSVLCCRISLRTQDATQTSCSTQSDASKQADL
`O=C(Nc1ccccc1N1CCCCC1)c1cnccn1`: the result was active.

With `CCOC(=O)c1c(NC(=O)CN2CCCCC2)sc(C)c1C`, the result was active.

Regarding `CC(C)Cc1nc(N2CCCCC2)c(C#N)c2c1CCC2`, the result was active.

On to `COCCn1c(SC(C(=O)Nc2cc(C)ccc2OC)c2ccccc2)nnc1-c1ccc(Cl)cc1` (stereo not given), for which the result was active.

`CC12CCC(C(=O)N(CSC(=S)N/N=C\c3ccccc3Cl)C1=O)C2(C)C` (stereo not given): the outcome was active.

For `COc1ccc(-c2nc(NC(C)=O)sc2-c2ccccc2)cc1`, the outcome was active.

Regarding `COc1ccc(-c2cc(-c3ccccc3)nc(N3CCCC3)n2)cc1OC`, the outcome was active.

Turning to `OC(Cc1ccccc1)(Cc1ccccc1)c1ccccc1`, the result was active.

Turning to `CCCCn1c(=O)c2ccccc2c2ccccc2c1=O`, the outcome was active.

For the compound `O=C(NCc1ccc(F)cc1)c1ccccc1OCc1ccccc1`, the outcome was active.

The assay is the same for the next values; noted with them: EP2-expressing cells, PGE2 EC50 shift by compound; measured here: PGE2 EC50 at 6.7 uM compound.
`O=C(Nc1ccccc1N1CCCCC1)c1cnccn1`: the PGE2 EC50 with compound stood at 0.93 nM.

For the compound `Cc1ccc(Cn2c(Cc3ccccc3)nc3ccccc32)cc1`, the PGE2 EC50 with compound is 2.5 nM.

For the compound `CCOC(=O)C1=C(N)OC(C)=C(C#N)C1c1ccco1` (stereo not given), the PGE2 EC50 with compound is 1.49 nM.

Take `O=C(CNCC1CCCCC1)Nc1ccccc1N1CCCCC1`: the PGE2 EC50 with compound was 0.81 nM.

For the compound `C=CCSc1ncnc2sc(C)c(C)c12`, the PGE2 EC50 with compound came out at 1.3 nM.

For the compound `CCCOc1ccc(/C=N/Nc2ccc(C(=O)O)cc2)c(OCCC)c1`, the PGE2 EC50 with compound was found to be 0.87 nM.

Take `Cc1cccc(C)c1OCc1nnc(SCC(=O)Nc2nccs2)n1-c1ccccc1`: the PGE2 EC50 with compound was 1.01 nM.

Consider `CC(C)Cc1nc(SCc2cccnc2)c2c(=O)n(C)c(=O)n(C)c2n1`, for which the PGE2 EC50 with compound was 0.67 nM.

As to `CCOC(=O)n1c(=O)n(Cc2ccc(Cl)c(Cl)c2)c2ccccc21`, the PGE2 EC50 with compound was 0.9 nM.

As to `CC(=O)O[C@H]1CC[C@@]2(C)[C@@H](CC[C@H]3[C@H]2CC(=O)[C@]2(C)[C@@H]3C[C@H]3CC(C)=CC(=O)[C@@H]32)C1`, the PGE2 EC50 with compound was determined as 1.34 nM.

In the case of `Cc1ccccc1NC(=O)/C(=C/c1ccccc1)c1ccccc1`, the PGE2 EC50 with compound turned out to be 1.23 nM.

Consider `C=CCOc1ccc2c(c1)C(=NO)c1cc(OCC=C)ccc1-2`, for which the PGE2 EC50 with compound was found to be 0.62 nM.

With `CCOC(=O)c1c(NC(=O)CN2CCCCC2)sc(C)c1C`, the PGE2 EC50 with compound is 0.89 nM.

Consider `Cc1cc(Oc2ccccc2F)nc(NCc2ccccc2)n1`, for which the PGE2 EC50 with compound stood at 1.34 nM.

As to `CC(C)CCn1c(N2CCN(c3cccc(Cl)c3)CC2)nc2c1c(=O)[nH]c(=O)n2C`, the PGE2 EC50 with compound came to 0.93 nM.

With `CCCn1c(=O)[nH]c(=O)c2c1nc(-c1ccccc1OC(F)F)n2CCOC`, the PGE2 EC50 with compound is 1.08 nM.

Take `CC(C)Cc1nc(N2CCCCC2)c(C#N)c2c1CCC2`: the PGE2 EC50 with compound was determined as 1.37 nM.

For the compound `CC(C)N(CCNC(=O)c1oc(=O)c2ccccc2c1-c1ccccc1)Cc1ccco1`, the PGE2 EC50 with compound amounted to 1.6 nM.

Take `C(=N\N1CCN(C2c3ccccc3-c3ccccc32)CC1)/c1cccnc1`: the PGE2 EC50 with compound came to 1.54 nM.

Consider `Cc1ccc(N(Cc2ccccc2)Cc2ccccc2)cc1`, for which the PGE2 EC50 with compound is 1.7 nM.

Take `COc1ccccc1-c1nnc2sc(-c3cc4ccccc4o3)nn12`: the PGE2 EC50 with compound came to 6.03 nM.

For the compound `Cc1nnc(SCC(=O)NC2CCCCC2)n1C1CCCCC1`, the PGE2 EC50 with compound turned out to be 2.7 nM.

For `O=C(c1ccccc1O)N1N=C(c2ccccc2)CC1(O)C(F)(F)F` (stereo not given), the PGE2 EC50 with compound came out at 1.48 nM.

`Cc1ccc(C(=O)C2=C(O)C(=O)N(CCCn3ccnc3)C2c2ccc(OC(C)C)cc2)o1` (stereo not given): the PGE2 EC50 with compound amounted to 1.01 nM.

Take `Cc1noc2ncnc(Sc3c(Cl)cccc3Cl)c12`: the PGE2 EC50 with compound worked out at 0.75 nM.

Take `COCCn1c(SC(C(=O)Nc2cc(C)ccc2OC)c2ccccc2)nnc1-c1ccc(Cl)cc1` (stereo not given): the PGE2 EC50 with compound amounted to 1.44 nM.

With `CC[C@@H]1C(=O)OC[C@@H]1Cc1cncn1C`, the PGE2 EC50 with compound turned out to be 1.8 nM.

Take `O=c1oc2c3c4c(cc2c(C(F)(F)F)c1CCN1CCOCC1)CCCN4CCC3`: the PGE2 EC50 with compound is 0.83 nM.

On to `CC1CCN(c2nc3c(c(=O)[nH]c(=O)n3C)n2CCCc2ccccc2)CC1`, for which the PGE2 EC50 with compound was found to be 1.05 nM.

As to `CCOC(=O)c1c(-c2ccc(C)o2)csc1NC(=O)CN1CCCCC1`, the PGE2 EC50 with compound amounted to 0.73 nM.

As for `CC12CCC(C(=O)N(CSC(=S)N/N=C\c3ccccc3Cl)C1=O)C2(C)C` (stereo not given), the PGE2 EC50 with compound turned out to be 1.7 nM.

With `COc1cccc2[nH]c3c(N4CCCCC4)ncnc3c12`, the PGE2 EC50 with compound was determined as 0.6 nM.

Consider `C/C(Cl)=C/Cn1c(SC(C)C)nc2c1c(=O)[nH]c(=O)n2C`, for which the PGE2 EC50 with compound came out at 0.95 nM.

Consider `Cc1ccccc1-c1n[nH]c(=S)n1/N=C/c1ccc(-c2ccccc2Br)o1`, for which the PGE2 EC50 with compound turned out to be 2.42 nM.

As for `COc1ccc(CSC2=C(C#N)C(=O)NC3(CCCCC3)S2)cc1`, the PGE2 EC50 with compound is 1.3 nM.

On to `COc1ccccc1CNC(=O)C1(c2ccc(Cl)cc2)CC1`, for which the PGE2 EC50 with compound was 0.82 nM.

With `CCOc1ccccc1-c1nc2c(C(C)(C)C)nn(C)c2c(=O)[nH]1`, the PGE2 EC50 with compound came to 1.51 nM.

As to `CC(Sc1cnc2ccccc2n1)C(=O)O` (stereo not given), the PGE2 EC50 with compound worked out at 2.61 nM.

As for `Cc1nc2ccccn2c1C(=O)CSc1ccc(Cl)cc1Cl`, the PGE2 EC50 with compound amounted to 1.47 nM.

Take `CCCCc1ccc(-n2c(Cc3cccs3)n[nH]c2=S)cc1`: the PGE2 EC50 with compound turned out to be 0.8 nM.

Turning to `COCCCN(C(=O)c1ccco1)c1nc(-c2cc(OC)ccc2OC)cs1`, the PGE2 EC50 with compound is 0.9 nM.

For the compound `O=C(N=C1SCC(=O)N1c1ccccc1Cl)c1ccccc1`, the PGE2 EC50 with compound turned out to be 1.03 nM.

On to `COC(=O)c1sc2[nH]c(=S)n(N)c(=O)c2c1C`, for which the PGE2 EC50 with compound was determined as 1.06 nM.

`COc1ccc(-n2c(CCc3ccccc3)nnc2SCC(=O)c2ccccc2)cc1`: the PGE2 EC50 with compound is 1.57 nM.

On to `CCOc1ccc(-c2nnc3n2N=C(c2ccc(OC)cc2)CS3)cc1`, for which the PGE2 EC50 with compound stood at 0.5 nM.

In the case of `COc1ccc(-c2nc(NC(C)=O)sc2-c2ccccc2)cc1`, the PGE2 EC50 with compound is 1.01 nM.

On to `CCOC(=O)CC(=O)CSc1nc(-c2ccc3c(c2)OCO3)cc(C(F)(F)F)c1C#N`, for which the PGE2 EC50 with compound was 1.24 nM.

`O=C(O)[C@@H]1[C@H](C(=O)O)[C@@H](C(=O)O)C[C@H]1C(=O)O`: the PGE2 EC50 with compound came to 0.91 nM.

Turning to `Cn1c(=O)c2c(nc(SCC(=O)N3CCc4ccccc4C3)n2C)n(C)c1=O`, the PGE2 EC50 with compound was determined as 1.51 nM.

Turning to `COc1ccc(-c2cc(-c3ccccc3)nc(N3CCCC3)n2)cc1OC`, the PGE2 EC50 with compound was 1.12 nM.

For the compound `Cc1cccc(/C=N/Nc2cc(N3CCOCC3)nc(N3CCOCC3)n2)c1`, the PGE2 EC50 with compound is 1.08 nM.

For the compound `Cc1cc(C)c(S(=O)(=O)N(C2=NCCS2)S(=O)(=O)c2c(C)cc(C)cc2C)c(C)c1`, the PGE2 EC50 with compound was found to be 0.99 nM.

Regarding `Cc1ccc2[nH]c3c(=S)nc[nH]c3c2c1`, the PGE2 EC50 with compound is 2.83 nM.

Take `Cc1nccc2[nH]c(=O)c(C(=O)NC3CCCCC3C)cc12` (stereo not given): the PGE2 EC50 with compound worked out at 1.44 nM.

With `COc1ccc(C2=NN(C(=O)c3cccs3)C(c3ccccc3O)C2)cc1` (stereo not given), the PGE2 EC50 with compound amounted to 0.51 nM.

In the case of `CN(C)c1oc(-c2ccccc2Cl)nc1P(=O)(c1ccccc1)c1ccccc1`, the PGE2 EC50 with compound stood at 1.17 nM.

Turning to `O=C(CNCc1ccccc1Cl)Nc1ccccc1N1CCCCC1`, the PGE2 EC50 with compound worked out at 0.64 nM.

Turning to `CC(=O)CSc1ncnc2sc3c(c12)CCC(C)C3` (stereo not given), the PGE2 EC50 with compound was found to be 1.75 nM.

Take `OC(Cc1ccccc1)(Cc1ccccc1)c1ccccc1`: the PGE2 EC50 with compound amounted to 1.02 nM.

With `CCCCn1c(=O)c2ccccc2c2ccccc2c1=O`, the PGE2 EC50 with compound stood at 0.96 nM.

`C=CCn1c(=O)c2c(nc(-c3ccc(S(=O)(=O)O)cc3)n2C)n(C)c1=O`: the PGE2 EC50 with compound worked out at 2.68 nM.

For the compound `Cn1cc(C2=C(c3ccc(Cl)cc3Cl)C(=O)NC2=O)c2ccccc21`, the PGE2 EC50 with compound came to 0.68 nM.

On to `CCOC(=O)CNC(=O)c1ccc2c(c1)OCCO2`, for which the PGE2 EC50 with compound amounted to 2.56 nM.

Take `O=C(NCc1ccc(F)cc1)c1ccccc1OCc1ccccc1`: the PGE2 EC50 with compound was found to be 1.03 nM.

For `CCOC(=O)c1cnn(-c2nc(-c3ccc(F)cc3)cs2)c1C(F)(F)F`, the PGE2 EC50 with compound came to 1.04 nM.

For the origin of these results see PubChem BioAssay AID1421 (Emory University Molecular Libraries Screening Center, 2008).
